Measurements published in patent publication US20240108734A1, “METHODS FOR TREATING AND AMELIORATING CANCER” (The Regents of the University of California, priority 2021, published 2024).
“Also recorded” adds a separate entry of the source.

How the values were obtained:
[1] = tested on: ADAR1-mediated RNA editing; test: RNA-seq quantification of ADAR1-mediated A-to-I RNA editing in treated BC CML mice; assay type: in vivo; conditions: human cells from imetelstat treated LSC mouse models; p=0.037
Procedure: For gene expression and RNA editing analysis, RNA editing sites were identified in REDIportal^34 (see the Supplementary Appendix). […] Gene Set Enrichment Analysis was performed with the Bioconductor package GSVA (see the Supplementary Appendix)^36. For in vitro and in vivo experiments, the Student's t-test was utilized to evaluate statistical significance of normally distributed data and Wilcoxon tests were utilized for non-normally distributed data with a p value of <0.05.
To quantify adenosine-to-inosine (A-to-I) RNA editing events induced by ADAR1, RNA reads were aligned using 2-pass alignment with STAR 2.5.2b 2-pass alignment. […] All sites were kept if a minimum of three alternative allele carrying reads and ten total reads and a minimum allele frequency of 0.10 were present. […] We only predicted RNA editing sites with >10 reads/site to compare mismatches and excluded sites that were identified as DNA variants. […] To account for multiple testing, adjusted p-values were calculated using the Benjamini-Hochberg procedure and genes with events below an adjusted p-value of 0.05 were called significant and retained in the final lists.
FIG. 5H. A boxplot depicting detectable RNA edits per million aligned reads in human CD45^+ cells derived from vehicle (red), mismatch control (blue) and imetelstat (green) treated BC CML mouse models. […]

telomerase = target: T1, telomerase (Homo sapiens, UniProt O14746); test: TRAP telomerase activity assay in BC CML engrafted human CD45+ cells; assay type: in vivo; conditions: imetelstat compared with vehicle, p<0.0002
T1 construct: Cell lysates from 5×10^5 CD34^+ selected cells from BC CML engrafted mice or K562 cells were prepared; endogenous in cells; host or cells: human CD45+ / CD34+ cells selected from bone marrow or spleen of BC CML engrafted mice
T1 sequence (O14746 whole entry): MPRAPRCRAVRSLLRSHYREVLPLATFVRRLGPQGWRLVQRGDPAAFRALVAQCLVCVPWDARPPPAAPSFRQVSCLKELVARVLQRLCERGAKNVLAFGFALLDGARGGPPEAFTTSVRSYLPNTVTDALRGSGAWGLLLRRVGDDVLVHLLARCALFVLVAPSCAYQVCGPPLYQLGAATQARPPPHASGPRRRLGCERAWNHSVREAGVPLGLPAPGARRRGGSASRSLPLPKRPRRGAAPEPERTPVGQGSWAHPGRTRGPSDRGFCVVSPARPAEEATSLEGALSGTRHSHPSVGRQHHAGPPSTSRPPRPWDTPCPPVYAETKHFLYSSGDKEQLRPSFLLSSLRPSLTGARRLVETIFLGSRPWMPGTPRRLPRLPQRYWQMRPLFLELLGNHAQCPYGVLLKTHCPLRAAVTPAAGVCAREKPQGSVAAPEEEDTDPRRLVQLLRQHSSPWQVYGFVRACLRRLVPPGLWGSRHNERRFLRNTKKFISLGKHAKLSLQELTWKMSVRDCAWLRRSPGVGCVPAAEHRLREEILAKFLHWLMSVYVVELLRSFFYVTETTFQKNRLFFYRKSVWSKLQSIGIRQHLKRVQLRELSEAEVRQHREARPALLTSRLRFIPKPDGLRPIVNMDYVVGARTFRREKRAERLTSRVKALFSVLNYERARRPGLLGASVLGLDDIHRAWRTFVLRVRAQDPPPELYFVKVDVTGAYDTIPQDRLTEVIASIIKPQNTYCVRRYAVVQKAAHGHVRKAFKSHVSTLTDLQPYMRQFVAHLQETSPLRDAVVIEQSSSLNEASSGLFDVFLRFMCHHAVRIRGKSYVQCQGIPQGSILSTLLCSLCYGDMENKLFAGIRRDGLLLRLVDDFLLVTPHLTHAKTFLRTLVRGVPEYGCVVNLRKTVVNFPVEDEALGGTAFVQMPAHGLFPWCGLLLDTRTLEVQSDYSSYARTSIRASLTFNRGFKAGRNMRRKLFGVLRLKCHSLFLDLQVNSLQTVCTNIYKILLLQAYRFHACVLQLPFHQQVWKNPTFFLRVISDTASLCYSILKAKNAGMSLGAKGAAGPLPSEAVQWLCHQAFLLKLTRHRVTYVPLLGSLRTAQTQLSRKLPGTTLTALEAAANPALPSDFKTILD
T1 sequence (O60832 whole entry partner): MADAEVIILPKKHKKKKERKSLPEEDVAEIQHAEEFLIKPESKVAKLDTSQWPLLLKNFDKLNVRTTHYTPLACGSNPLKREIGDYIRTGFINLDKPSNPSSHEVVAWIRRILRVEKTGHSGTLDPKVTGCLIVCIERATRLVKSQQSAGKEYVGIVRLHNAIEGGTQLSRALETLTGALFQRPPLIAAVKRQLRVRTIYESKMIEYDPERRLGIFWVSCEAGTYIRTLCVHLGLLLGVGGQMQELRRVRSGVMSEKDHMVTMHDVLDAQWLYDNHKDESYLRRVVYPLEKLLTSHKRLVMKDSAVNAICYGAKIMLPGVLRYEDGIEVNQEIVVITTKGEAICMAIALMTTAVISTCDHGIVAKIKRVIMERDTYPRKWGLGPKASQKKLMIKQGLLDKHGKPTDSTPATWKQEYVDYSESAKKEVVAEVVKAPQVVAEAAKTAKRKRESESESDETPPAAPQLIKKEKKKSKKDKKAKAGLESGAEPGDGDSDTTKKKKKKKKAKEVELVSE
T1 sequence (Q9NX24 whole entry partner): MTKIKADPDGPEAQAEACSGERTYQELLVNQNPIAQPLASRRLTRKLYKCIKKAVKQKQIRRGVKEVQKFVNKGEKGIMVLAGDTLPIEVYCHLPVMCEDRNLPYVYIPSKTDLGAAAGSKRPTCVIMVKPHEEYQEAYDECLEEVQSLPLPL
T1 sequence (Q9NPE3 whole entry partner): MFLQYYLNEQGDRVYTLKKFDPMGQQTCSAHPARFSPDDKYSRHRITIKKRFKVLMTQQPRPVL
T1 sequence (Q9NY12 whole entry partner): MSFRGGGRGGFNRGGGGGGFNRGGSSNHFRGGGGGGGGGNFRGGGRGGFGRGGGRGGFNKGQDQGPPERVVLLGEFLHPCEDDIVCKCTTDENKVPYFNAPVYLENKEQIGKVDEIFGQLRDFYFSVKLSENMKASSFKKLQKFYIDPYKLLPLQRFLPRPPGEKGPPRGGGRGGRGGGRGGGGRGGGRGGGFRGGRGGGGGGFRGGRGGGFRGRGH
T1 sequence (Q9BUR4 whole entry partner): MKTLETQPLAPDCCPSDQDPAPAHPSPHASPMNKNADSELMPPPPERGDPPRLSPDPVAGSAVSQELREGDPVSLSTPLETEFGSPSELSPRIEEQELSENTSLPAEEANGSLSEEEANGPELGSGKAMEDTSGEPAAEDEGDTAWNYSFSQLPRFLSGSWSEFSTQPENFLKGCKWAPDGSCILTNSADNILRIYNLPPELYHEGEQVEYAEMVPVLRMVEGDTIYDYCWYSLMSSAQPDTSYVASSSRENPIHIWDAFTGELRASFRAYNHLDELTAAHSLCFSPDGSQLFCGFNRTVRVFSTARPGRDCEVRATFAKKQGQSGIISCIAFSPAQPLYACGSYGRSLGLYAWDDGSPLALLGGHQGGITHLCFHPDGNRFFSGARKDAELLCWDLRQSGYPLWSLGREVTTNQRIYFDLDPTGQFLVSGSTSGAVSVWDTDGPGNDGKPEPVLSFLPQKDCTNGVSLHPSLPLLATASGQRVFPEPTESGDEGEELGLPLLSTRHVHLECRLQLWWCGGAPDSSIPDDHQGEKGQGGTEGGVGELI
Procedure: Telomere length was determined using the Telomere PNA Kit/FITC for Flow Cytometry (Dako, Cat #K5327) with a MACSQuant10 and analyzed with FlowJo software. The Relative Telomere Length (RTL) was calculated by dividing the mean fluorescence intensity (MFI) of the test sample G0/G1 population by the MFI of the normal peripheral blood reference G0/G1 population using the Cycletest™ Plus DNA Kit (BD, Cat #340242). Telomerase activity was determined using the TRAPeze Kit RT Telomerase Detection Kit (Millipore, Catalog No. S7710).
Samples were selected from engrafted mouse bone marrow or spleen with human CD45+ immunomagnetic beads (Miltenyi). Telomere length was determined by using the Telomere PNA Kit/FITC for Flow Cytometry (Dako, Cat #K5327). Samples were run on the MACSQuant10 and analyzed with FlowJo software. The Relative Telomere Length (RTL) was calculated. The 1301 cell line was utilized as control cells. The DNA index was determined with the (BD Cycletest™ Plus DNA Kit, Cat #340242). […] Telomerase activity was determined by using TRAPeze Kit RT Telomerase Detection Kit (Millipore, Catalog No. S7710). […]
FIG. 5D. Telomerase activity in BC CML engrafted human CD45^+ cells, as measured by TRAP assay, in vehicle (red), mismatch control (blue) and imetelstat (green) treated BC CML mice.

imetelstat
ADAR1-mediated adenosine to inosine RNA editing by RNA-seq [1]: significant reduction; also recorded: significantly reduced
telomerase activity by TRAP assay (telomerase): reduction
